The values that follow are results of earlier work, collected in patent EP0893690B1, “Detection of mycotoxins by flow-through membrane-based enzyme immunoassay” (priority 1997, dated 1999).

Data set [1] has as its target monoclonal anti-OA antibody (IgG1 with kappa light chains). The settings on record: association constant of the anti-OA antibody for its antigen OA; read-out: affinity constant (converted).
In data set [2] the test system is monoclonal anti-OA antibody (IgG1 with kappa light chains). The settings on record: relative to OA; called weak.

Regarding `C[C@@H]1Cc2c(Cl)cc(C(=O)N[C@@H](Cc3ccccc3)C(=O)O)c(O)c2C(=O)O1` [OA, ochratoxin A], the Kd in data set [1] was 0.128 nM.
Take `C[C@@H]1Cc2ccc(C(=O)N[C@@H](Cc3ccccc3)C(=O)O)c(O)c2C(=O)O1` [ochratoxin B]: in data set [2], the cross-reaction is 9.3%.
